These results are taken from patent publication US4642364A, “Unsaturated eicosanoic acids” (Hoffmann-La Roche Inc., priority 1986, dated 1987).

Each structure is given as a SMILES string.

The first assay deals with SRS-A synthesis (Rat Peritoneal Cells). The assay can be described thus: Inhibition of the in vitro synthesis of SRS-A in rat peritoneal cells (ionophore A23187 challenge, guinea pig ileum bioassay). It is filed as cell-based, rat (male Sprague-Dawley).
Settings: not given
From the text: To study the effect of drugs on SRS-A synthesis in rat peritoneal cells, these cells (including mast cells, monocytes, eosinophils and neutrophils)were isolated from male Sprague-Dawley rats (Charles River Laboratories) weighing 180-220 g by the lavage procedure described by Herzig, D. J. and Kusner, E. J., Journal of Pharmacology and Experimental Therapeutics, 194, 457-462 (1975) with the exception that Hanks balanced salt solution used in these experiments was adjusted to pH 6.9 with 5% (V/V) of 0.1M aqueous phosphate buffer and contained 50 m/gml sodium heparin. After removal from the peritoneal cavity of rats, the cells were subsequently isolated by centrifugation at 400×gravity for 10 minutes at 4° C. and resuspended to a concentration of about 2,000,000 cells per ml in Hanks buffer.
Samples for evaluation were prepared by adding various concentrations of test drugs to 2 ml aliquots of the resuspended cells in Hanks buffer. The 2 ml samples used for control contained 2 ml aliquots of resuspended cells in Hanks buffer without drugs. All of the above samples (2 ml final volume) were preincubated at 37° C. for 10 minutes in the presence of varying concentrations of test drug prior to challenge with 5×10^-7 M ionophore […]. This ionophore is disclosed in Burka and Flower, Br. J. Pharmacology 65: 35-41 (1979). Antibiotic A23187 was used as a probe for the study of calcium and magnesium function in biological systems. After ionophore challenge, SRS-A was synthesized in the samples by the cells for 10 minutes (at 37° C.) after which this synthesis was terminated by placing the samples in a boiling water bath for 10 minutes followed by centrifugation at 2,000×g (10 minutes) at 4° C. to remove coagulated protein and cellular debris. The SRS-A present in the resulting supernatants was quantitated by a bioassay using a guinea pig ileum as described in Orange, and Austen, Adv. Immunol. 10: 105-144 144 (1969). For this bioassay, a 1.5 cm segment of ileum was removed from animals weighing 300 to 400 g and suspended in an organ bath containing 10 ml of Tyrodes solution with 10^-6 M atropine sulfate and 10^-6 M pyrilamine maleate. The bath was maintained at 37° C. and aerated with a mixture of 95% O2 and 5%CO2. The concentration of SRS-A in the experimental samples was determined by a comparison of the isotonic contraction responses elicited by the samples with those obtained with varying amounts of an SRS-A standard solution prepared from chopped guinea pig lung as disclosed in Hitchcock, M. J. Pharmacol. Exp. Ther. 207: 630-640 (1978) and quantituted by the procedures of Orange, R. R. and Austen, K. F. Adv. Immunol. 10: 105-144 (1969) against histamine (1 unit of SRS-A being that amount which gives a contractile response similar to that of […] of histamine). In the absence of drug, the ionophore A23187-induced SRS-A synthesis varied between 40 to 50 units of SRS-A per 10^6 cells. In the presence of increasing concentrations of test drug, there was a concentration-related decrease in SRS-A synthesis. [formula] at each concentration of the various test drugs was calculated. The concentration of test drug which inhibits the synthesis of SRS-A by 50% (IC50) was determined for each test drug from a plot of the mean percent inhibition versus the log of drug concentration. The difference of units of SRS-A in the test sample used in the fraction given above was obtained by subtracting from the units of SRS-A in the control from the actual measurement of the units of SRS-A in the sample.
With `CCCCCC#CCC#CCCCCCCCC(=O)O` [9,12-Octadecadiynoic Acid, reference compound], the 50% inhibitory concentration (IC50) was 3000 nM.

`CCCCCCCC/C=C\CC#CCC#CCCCC(=O)O` [Compound 5, (Z,Z)-11-eicosen-5,8-diynoic acid] yielded an IC50 of 1000 to 3000 nM.

In turn, `CCCCC/C=C\CCCCC#CCC#CCCCC(=O)O` [Compound 6, (Z)-14-eicosen-5,8-diynoic acid] registered a half-inhibitory concentration (IC50) of 1000 to 3000 nM.

Still in this assay, the particulars now being: 10 μM, p values given.
`CCCCCC#CCC#CCCCCCCCC(=O)O` [9,12-Octadecadiynoic Acid, reference compound] displayed an inhibition at 10 µM of 87 ± 1%.

In the case of `CCCCC/C=C\C/C=C\CC#CCC#CCCCC(=O)O` [Compound 3, (Z,Z)-11,14-eicosadien-5,8-diynoic acid], the inhibition at 10 µM amounted to 81 ± 6%.

`CCCCCCCC/C=C\CC#CCC#CCCCC(=O)O` [Compound 5, (Z,Z)-11-eicosen-5,8-diynoic acid] yielded an inhibition at 10 µM of 100%.

Consider `CCCCC/C=C\CCCCC#CCC#CCCCC(=O)O` [Compound 6, (Z)-14-eicosen-5,8-diynoic acid], for which the inhibition at 10 µM came out at 100%.

The target of a further assay is T1, Prostaglandin endoperoxide synthase (Ovis aries, UniProt P05979).
T1 construct: sheep seminal vesicular gland microsomes (SSVM) as the enzyme source; from tissue; host or cells: sheep seminal vesicular gland microsomes, acetone powder
T1 sequence (P05979 25-600): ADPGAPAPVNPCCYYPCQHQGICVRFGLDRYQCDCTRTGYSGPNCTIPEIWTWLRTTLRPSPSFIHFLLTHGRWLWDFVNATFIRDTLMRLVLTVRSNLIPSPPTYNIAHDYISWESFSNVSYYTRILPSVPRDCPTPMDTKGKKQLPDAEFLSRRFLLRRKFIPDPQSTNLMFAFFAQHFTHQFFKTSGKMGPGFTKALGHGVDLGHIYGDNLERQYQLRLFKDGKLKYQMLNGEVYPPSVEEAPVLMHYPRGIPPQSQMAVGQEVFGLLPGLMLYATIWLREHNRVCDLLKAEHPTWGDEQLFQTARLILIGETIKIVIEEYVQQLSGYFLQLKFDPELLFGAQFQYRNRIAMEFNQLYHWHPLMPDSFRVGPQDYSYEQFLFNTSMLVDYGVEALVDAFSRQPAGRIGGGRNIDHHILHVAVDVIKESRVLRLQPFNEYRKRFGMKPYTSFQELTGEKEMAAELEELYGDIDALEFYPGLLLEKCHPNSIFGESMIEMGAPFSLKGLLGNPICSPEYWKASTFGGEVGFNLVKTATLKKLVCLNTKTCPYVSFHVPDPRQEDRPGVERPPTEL
As to the kind of experiment: Prostaglandin endoperoxide synthase (PES) assay, oxygen uptake with sheep seminal vesicular gland microsomes. The class given is biochemical. As to conditions: 33 μM arachidonic acid, pH 8.5. Here is the method:
The activity of PES was measured polarigraphically by following the disappearance of dissolved O2 from incubation mixtures containing arachidonic acid (AA) as substrate and sheep seminal vesicular gland microsomes (SSVM) as the enzyme source. Fifty mg of an acetone powder of SSVM were suspended, using a glass teflon homogenizer, in 1 ml of 0.1M tris. HCl (pH, 8.5) containing 0.67 mM phenol. This suspension of SSVM was incubated at room temperature in the presence of phenol to maximumly activate the PES and then the suspension was kept at 0°. Samples in a separate reaction vessel were each prepared by adding tris-phenol buffer (2.8 ml), 0.05 ml of the SSVM suspension, and a maximum of 0.12 ml of ethanol containing various concentrations of the test drug. […] Reaction vessels were then allowed to reach temperature equilibrium. An oxygen electrode is inserted into the vessel and then 24 μl of 4.1 mM AA are injected into the sealed vessel through a port on the side of the electrode. The final concentration of AA is 33 μM. Oxygen uptake is recorded and the initial rate of oxygen uptake used as a measure of PES activity. Each of the test compounds were tested initially at a high concentration (1 mM) and then, if required, dilutions are made. The mean percent inhibition was obtained for each concentration of the various test drugs by expressing as a percent the number obtained by dividing the difference of the oxygen uptake of the test sample by the oxygen uptake of the control. The concentration of test drug which inhibits the synthesis of PES by 50% (IC50) which is given in the following table was determined for each test drug from a plot of mean percent inhibition verses drug concentration. The difference of the oxygen uptake of test sample was obtained by subtracting from the oxygen uptake of the control, the oxygen uptake of the test sample.
For the molecule `CCCCCC#CCC#CCCCCCCCC(=O)O` [9,12-Octadecadiynoic Acid, reference compound], the concentration for half-maximal inhibition (IC50) fell in the range of 100 to 1000 nM.

`CCCCC/C=C\C/C=C\CC#CCC#CCCCC(=O)O` [Compound 3, (Z,Z)-11,14-eicosadien-5,8-diynoic acid] yielded an IC50 of 10000 to 100000 nM.

Molecule `CCCCCCCC/C=C\CC#CCC#CCCCC(=O)O` [Compound 5, (Z,Z)-11-eicosen-5,8-diynoic acid] returned an IC50 of more than 100000 nM.

`CCCCC/C=C\CCCCC#CCC#CCCCC(=O)O` [Compound 6, (Z)-14-eicosen-5,8-diynoic acid] registered a concentration for half-maximal inhibition (IC50) of more than 100000 nM.

As a reminder, the IC50 is the concentration that inhibits the measured activity by half. A high value points to lower potency. A word on the inhibition: it is the change of the read-out against control, counted positive when it falls. Read a low inhibition as a response near the control.
